Experimental data published in paper PMC10045534, “Preparation and Evaluation of 6-Gingerol Derivatives as Novel Antioxidants and Antiplatelet Agents” (Antioxidants, 2023).

What was measured:
[1] = molecular target: T1, COX-1 enzyme (Ovis aries, UniProt P05979); assay: COX-1 inhibitor screening kit, fluorometric (BioVision K548-100); assay type: biochemical; conditions: for LLE(COX-1): LLE = pIC50 − logPpredicted; for IC50: mean ± SEM, n = 2
T1 construct: purchased BioVision (via VWR International Kft.) K548-100
T1 sequence (P05979 25-600): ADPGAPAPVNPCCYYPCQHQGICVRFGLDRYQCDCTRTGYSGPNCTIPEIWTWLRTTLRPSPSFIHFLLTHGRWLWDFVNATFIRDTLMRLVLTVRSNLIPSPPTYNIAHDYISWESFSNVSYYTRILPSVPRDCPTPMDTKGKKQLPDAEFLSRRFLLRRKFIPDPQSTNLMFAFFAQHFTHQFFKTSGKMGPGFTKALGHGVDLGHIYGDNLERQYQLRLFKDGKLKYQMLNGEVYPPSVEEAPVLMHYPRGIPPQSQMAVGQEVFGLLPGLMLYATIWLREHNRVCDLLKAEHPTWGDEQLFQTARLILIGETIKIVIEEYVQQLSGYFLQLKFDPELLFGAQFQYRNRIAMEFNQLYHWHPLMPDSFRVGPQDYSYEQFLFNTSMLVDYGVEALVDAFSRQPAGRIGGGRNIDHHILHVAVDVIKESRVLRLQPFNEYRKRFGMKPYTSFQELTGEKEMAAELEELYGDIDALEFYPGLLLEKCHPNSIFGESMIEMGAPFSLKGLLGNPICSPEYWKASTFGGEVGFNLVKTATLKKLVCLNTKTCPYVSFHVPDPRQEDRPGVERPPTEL
Method: COX-1 inhibitory activity was tested based on the fluorometric method as described in BioVision’s COX-1 inhibitor screening kit leafkit (K548-100, BioVision, CA, USA). Sample solutions were prepared by dissolving in DMSO and subsequently buffer, to get desired concentrations. In a 96-well white plate (655101, F-bottom, Grenier bio-one, Germany), 80 µL reaction mix (containing 76 µL assay buffer, 1 µL COX Probe, 2 µL COX cofactor, and 1 µL COX-1 enzyme) was added to 10 µL sample solution, DMSO and assay buffer to get test wells assigned for sample screen (S), negative control (N) and blank, respectively. An aliquot of 10 µL of arachidonic/NaOH solution was added to each well using a multi-channel pipette to initiate the reaction at the same time, and the fluorescence of each well was measured kinetically at Ex/Em 550/610 nm, at 25OC for 10 min using a FluoStar Optima plate reader (BMG Labtech, Ortenberg, Germany). The COX inhibitory activity of SC560, a standard inhibitor, was also determined.
The change in fluorescence between two points, T1 and T2 were determined, and relative inhibition was calculated according to the following equation:% Inhibition = (ΔN − ΔS)/ΔN × 100 (1) where N is the absorbance of the negative control, and S is that of the sample.
Dose-effect studies on the compounds were used to determine the concentration that inhibits 50% of the enzyme activity. The sigmoidal dose–response model was obtained by using the software GraphPad Prism 8.0 (La Jolla, CA, USA), and these were used to determine the IC50 values of the compounds.

[2] = Peroxynitrite scavenging (pyrogallol red); conditions: % inhibition at 500 µM; mean ± SEM, n = 3
Method: Peroxynitrite was synthesised by a continuous flow system using syringe pumps as published previously. Briefly, an acidic solution of hydrogen peroxide (0.6 M H2O2, 0.7 M HCl) was pumped to a junction alongside of sodium nitrite solution (0.6 M) at a flow rate of 1.5 mL/min. After passing 10 cm of tubing, it was mixed with a sodium hydroxide solution (1.5 M), also pumped at 1.5 mL/min. The resulting peroxynitrite solution was a bright yellow colour. The tubing around the reaction was submerged in ice. The concentration of the solution was determined by spectrophotometry and was adjusted to 30 mM with 0.1 M NaOH solution.
In a 96-well microplate 245 µL of pyrogallol red (100 µM final concentration, dissolved in 0.1 M glycine buffer) was mixed with 50 µL of sample (0.5 mM final concentration, dissolved in DMSO) and 5 µL ONOO^– solution (500 µM final concentration, freshly prepared). After mixing and keeping it at room temperature for 30 min the absorbance was measured at 550 nm using a FluoStar Optima plate reader (software version 2.20R2, BMG Labtech, Ortenberg, Germany).

[3] = Kinetic aqueous solubility in PBS pH 7.4; assay type: physicochemical; conditions: after 2 h at 37 °C in PBS, 500 μM target concentration, mean ± SEM, n = 3; for solubility kinetic at 2 h: PBS (pH 7.4), 37 °C, pH 7.4, aqueous buffer, kinetic from dmso stock
Method: Preparative purifications over RP-HPLC were performed on a Kinetex XB C18 (5 μm, 250 × 21.2 mm) column on an Armen Spot Prep II integrated HPLC purification system (Gilson, Middleton, WI, USA) with dual-wavelength detection, with an adequately chosen combination of acetonitrile–water, and a flow rate of 15 mL/min. The purity of the compounds obtained was determined by RP-HPLC analyses on a system of two Jasco PU 2080 pumps, a Jasco AS-2055 Plus intelligent sampler connected to a JASCO LC-Net II/ADC equipped with a Jasco MD-2010 Plus PDA detector (Jasco International Co. Ltd., Hachioji, Tokyo, Japan) utilizing a Kinetex C-18 (5 μm, 250 × 4.6 mm) column (Phenomenex Inc., Torrance, CA, USA) and applying a gradient of 30%–100% aqueous AcN in 30 min followed by 100% ACN for 10 min with a flow rate of 1 mL/min. Analysis of samples from the PAMPA and kinetic solubility assays was performed the same way, by using 3-point calibrations and integrating each compound at its UV absorption maximum.
In a 96-well polypropylene plate (Greiner Bio-One, Kremsmünster, Austria), 15 μL stock solutions were added to 285 μL PBS (pH 7.4) to make starting donor solution with 500 μM as target concentration. For each sample, 3 replicates were measured. The samples were covered and shaken at 37 °C, 300 rpm for 2 h (Heidolph Titramax 1000, Heidolph Instruments GmbH & Co. KG, Schwabach, Germany). After that, each sample was transferred into a filter plate (MSSBLPC, Multiscreen Filter plate, Merck kGaA) and filtered (Vaccum Manifold, Merck kGaA, Darmstadt, Germany). The filtrates were transferred into HPLC vials, and acetonitrile (AcN) was added to aliquot to avoid precipitation. The final solvent ratio was AcN:PBS (70:30). Filtrate concentration was determined by HPLC-UV (see Section 2.1) using 3-points calibration.

CCCCC[C@H](O)CC(=O)CCc1ccc(O)c(OC)c1 [Compound 1, (S)-5-hydroxy-1-(4-hydroxy-3-methoxyphenyl)decan-3-one]
LLE(COX-1) [1]: 1.30
IC50 [1]: 62.5 ± 23.8 µM
ONOO^– Scavenging (%) [2]: <5.0%

CCCCC/C=C/C(=O)CCc1ccc(O)c(OC)c1 [Compound 2, 6-shogaol]
solubility kinetic at 2 h [3]: > 100 µM
LLE(COX-1) [1]: 0.81
IC50 [1]: 9.8 ± 0.6 µM
ONOO^– Scavenging (%) [2]: <5.0%

CCCCCCCC(=O)CCc1ccc(O)c(OC)c1 [Compound 3, 4,5-dihydro-6-shogaol]
solubility kinetic at 2 h [3]: 45.2 ± 2.7 µM
LLE(COX-1) [1]: 1.26
IC50 [1]: 4.4 ± 0.2 µM
ONOO^– Scavenging (%) [2]: <5.0%

CCCCCCCC(CCc1ccc(O)c(OC)c1)=NO [Compound 4, 1-(4-hydroxy-3-methoxyphenyl)decan-3-one oxime]
solubility kinetic at 2 h [3]: 75.1 ± 7.3 µM
LLE(COX-1) [1]: 0.48
IC50 [1]: 5.2 ± 0.3 µM
ONOO^– Scavenging (%) [2]: <5.0%

CCCCC[C@H](O)C[C@H](O)CCc1ccc(O)c(OC)c1 [Compound 5, (3R,5S)-1-(4-hydroxy-3-methoxyphenyl)decane-3,5-diol]
LLE(COX-1) [1]: 1.27
IC50 [1]: 54.3 ± 6.5 µM
ONOO^– Scavenging (%) [2]: <5.0%

CCCCC[C@H](O)C[C@@H](O)CCc1ccc(O)c(OC)c1 [Compound 6, (3S,5S)-1-(4-hydroxy-3-methoxyphenyl)decane-3,5-diol]
LLE(COX-1) [1]: 1.12
IC50 [1]: 76.2 ± 0.3 µM
ONOO^– Scavenging (%) [2]: <5.0%

CCCCCc1cc(CCc2ccc(O)c(OC)c2)[nH]n1 [Compound 14, 2-methoxy-4-(2-(3-pentyl-1H-pyrazol-5-yl)ethyl)phenol]
solubility kinetic at 2 h [3]: 277 ± 5.5 µM
LLE(COX-1) [1]: 0.74
IC50 [1]: 3.6 ± 0.2 µM
ONOO^– Scavenging (%) [2]: <5.0%

CCCCCc1cc(CCc2ccc(O)cc2)[nH]n1 [Compound 15, 4-(2-(3-pentyl-1H-pyrazol-5-yl)ethyl)phenol]
solubility kinetic at 2 h [3]: 203 ± 5.5 µM
IC50 [1]: > 200 µM
ONOO^– Scavenging (%) [2]: <5.0%

CCCCCc1cc(/C=C/c2ccc(O)cc2)[nH]n1 [Compound 16, (E)-4-(2-(3-pentyl-1H-pyrazol-5-yl)vinyl)phenol]
solubility kinetic at 2 h [3]: 89.4 ± 3.1 µM
LLE(COX-1) [1]: −0.04
IC50 [1]: 17.5 ± 0.1 µM
ONOO^– Scavenging (%) [2]: <5.0%

CCCCCc1cc(/C=C/c2ccc(O)c(OC)c2)on1 [Compound 17, (E)-2-methoxy-4-(2-(3-pentylisoxazol-5-yl)vinyl)phenol]
solubility kinetic at 2 h [3]: 10.9 ± 2 µM
LLE(COX-1) [1]: 0.83
IC50 [1]: 5.85 ± 0.04 µM
ONOO^– Scavenging (%) [2]: 38.40 ± 3.05%

CCCCCc1cc(/C=C/c2ccc(O)cc2)on1 [Compound 18, (E)-4-(2-(3-pentylisoxazol-5-yl)vinyl)phenol]
Kinetic Solubility [3]: < LOD
IC50 [1]: > 200 µM
ONOO^– Scavenging (%) [2]: 5.64 ± 1.31%

CCCCCCCNC(=O)CCc1ccc(O)c(OC)c1 [Compound 22]
IC50 [1]: > 100 µM
ONOO^– Scavenging (%) [2]: <5.0%
